Experimental data as given in ChEMBL document CHEMBL1208747, “Derivatives of tetrahydroisoquinoline: synthesis and initial evaluation of novel non-peptide antagonists of the alpha(IIb)beta(3)-integrin” (Bioorg Med Chem Lett, 2010).

How the values were obtained:
[1] = Antagonist activity at FITC-tagged […] integrin in human platelet rich plasma
[2] = target: T1, Integrin alpha-IIb/beta-3 (Homo sapiens, UniProt P05106+P08514); assay: Antagonist activity at FITC-tagged alphaIIbbeta3 integrin in human platelet assessed as inhibition of FITC-fibrinogen binding on washed platelets
[3] = target: T1, Integrin alpha-IIb/beta-3; assay: Antagonist activity at FITC-tagged […] integrin in human platelet rich plasma; assay type: functional, cell-free

T1 sequence (P05106 27-788 limits assumed): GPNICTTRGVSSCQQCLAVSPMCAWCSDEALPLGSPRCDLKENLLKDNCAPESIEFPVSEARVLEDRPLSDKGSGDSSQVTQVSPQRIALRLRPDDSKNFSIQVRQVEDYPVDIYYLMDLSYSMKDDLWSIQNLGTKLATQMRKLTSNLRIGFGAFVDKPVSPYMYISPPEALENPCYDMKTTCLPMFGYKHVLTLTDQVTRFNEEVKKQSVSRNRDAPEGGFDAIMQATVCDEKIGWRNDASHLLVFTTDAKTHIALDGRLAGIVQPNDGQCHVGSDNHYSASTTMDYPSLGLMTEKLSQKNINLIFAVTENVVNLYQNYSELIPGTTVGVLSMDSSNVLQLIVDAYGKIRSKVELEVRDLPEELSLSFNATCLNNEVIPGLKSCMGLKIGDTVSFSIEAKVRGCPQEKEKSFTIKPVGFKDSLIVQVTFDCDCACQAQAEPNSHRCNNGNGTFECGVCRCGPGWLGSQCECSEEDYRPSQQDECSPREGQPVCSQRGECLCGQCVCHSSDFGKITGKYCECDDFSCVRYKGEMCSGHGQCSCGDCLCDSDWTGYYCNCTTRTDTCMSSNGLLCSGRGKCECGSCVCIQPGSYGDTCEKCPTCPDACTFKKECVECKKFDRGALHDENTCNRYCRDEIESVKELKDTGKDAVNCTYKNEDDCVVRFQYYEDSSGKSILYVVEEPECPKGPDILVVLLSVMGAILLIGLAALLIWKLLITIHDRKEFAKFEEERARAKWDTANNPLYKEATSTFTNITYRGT
T1 sequence (P08514 32-887 limits assumed): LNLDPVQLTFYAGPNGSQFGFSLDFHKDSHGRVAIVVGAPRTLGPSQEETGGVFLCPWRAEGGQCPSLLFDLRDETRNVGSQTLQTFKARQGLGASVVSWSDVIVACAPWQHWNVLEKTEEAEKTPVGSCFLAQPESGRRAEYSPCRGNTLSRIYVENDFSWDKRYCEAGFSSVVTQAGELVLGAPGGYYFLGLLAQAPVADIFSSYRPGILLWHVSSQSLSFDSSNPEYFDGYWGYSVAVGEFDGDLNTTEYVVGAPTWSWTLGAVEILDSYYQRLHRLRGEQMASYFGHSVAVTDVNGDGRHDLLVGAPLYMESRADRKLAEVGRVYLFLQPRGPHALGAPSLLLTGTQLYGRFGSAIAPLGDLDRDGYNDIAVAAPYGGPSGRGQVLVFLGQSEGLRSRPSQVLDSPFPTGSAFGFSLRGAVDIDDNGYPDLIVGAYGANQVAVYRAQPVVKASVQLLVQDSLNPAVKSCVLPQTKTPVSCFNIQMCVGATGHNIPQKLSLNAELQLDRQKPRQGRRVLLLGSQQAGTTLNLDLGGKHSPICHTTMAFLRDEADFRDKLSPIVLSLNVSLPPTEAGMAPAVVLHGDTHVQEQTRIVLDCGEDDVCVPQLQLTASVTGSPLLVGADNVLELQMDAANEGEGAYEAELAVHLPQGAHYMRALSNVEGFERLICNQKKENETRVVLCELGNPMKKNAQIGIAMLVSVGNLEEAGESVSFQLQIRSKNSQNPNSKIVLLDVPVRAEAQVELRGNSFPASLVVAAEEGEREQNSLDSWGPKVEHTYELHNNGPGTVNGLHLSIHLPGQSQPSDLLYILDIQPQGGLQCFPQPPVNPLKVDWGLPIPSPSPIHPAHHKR
T1 sequence (P08514 891-1039 limits assumed): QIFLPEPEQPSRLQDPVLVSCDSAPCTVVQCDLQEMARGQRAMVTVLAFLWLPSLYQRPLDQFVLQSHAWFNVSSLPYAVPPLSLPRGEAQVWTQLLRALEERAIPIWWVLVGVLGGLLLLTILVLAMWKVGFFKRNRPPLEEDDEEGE

| Compound | IC50 [1] | IC50 [2] | IC50 [3] |
| --- | --- | --- | --- |
| O=C(O)CC(NC(=O)CCC(=O)Nc1ccc2c(c1)CNC2)c1ccccc1 (centres undefined) | 860 nM | – | – |
| Cc1ccc(C(CC(=O)O)NC(=O)CCC(=O)Nc2ccc3c(c2)CNCC3)cc1 (centres undefined) | – | 0.9 nM | 96 nM |
| COc1ccc(C(CC(=O)O)NC(=O)CCC(=O)Nc2ccc3c(c2)CNCC3)cc1 (centres undefined) | – | 3.5 nM | 310 nM |
| CC(C)Oc1ccc(C(CC(=O)O)NC(=O)CCC(=O)Nc2ccc3c(c2)CNCC3)cc1 (centres undefined) | – | – | 87 nM |
| COc1ccc(C(CC(=O)O)NC(=O)CCC(=O)Nc2ccc3c(c2)CNCC3)cc1OC (centres undefined) | – | 0.63 nM | 64 nM |
| CCOc1ccc(C(CC(=O)O)NC(=O)CCC(=O)Nc2ccc3c(c2)CNCC3)cc1OC (centres undefined) | – | – | 510 nM |
| O=C(O)CC(NC(=O)CCC(=O)Nc1ccc2c(c1)CNCC2)c1ccc2c(c1)OCO2 (centres undefined) | – | 0.4 nM | 90 nM |
| O=C(O)CC(NC(=O)CCC(=O)Nc1ccc2c(c1)CNCC2)c1cccc2ccccc12 (centres undefined) | – | – | 5200 nM |
| COc1ccc(C(CC(=O)O)NC(=O)CCCC(=O)Nc2ccc3c(c2)CNCC3)cc1 (centres undefined) | – | 18 nM | 4200 nM |
| COc1ccc(C(CC(=O)O)NC(=O)CCCC(=O)Nc2ccc3c(c2)CNCC3)cc1OC (centres undefined) | – | 5 nM | 127 nM |
| O=C(O)CC(NC(=O)CCCC(=O)Nc1ccc2c(c1)CNCC2)c1ccc2c(c1)OCO2 (centres undefined) | – | 0.78 nM | 53 nM |
| COc1ccc(C(CC(=O)O)NC(=O)CCC(=O)Nc2ccc3c(c2)CNC3)cc1 (centres undefined) | – | 2.6 nM | 160 nM |
| CC(C)Oc1ccc(C(CC(=O)O)NC(=O)CCC(=O)Nc2ccc3c(c2)CNC3)cc1 (centres undefined) | – | 6 nM | 105 nM |
| COc1ccc(C(CC(=O)O)NC(=O)CCC(=O)Nc2ccc3c(c2)CNC3)cc1OC (centres undefined) | – | 9 nM | 890 nM |
| O=C(O)CC(NC(=O)CCC(=O)Nc1ccc2c(c1)CNC2)c1ccc2c(c1)OCO2 (centres undefined) | – | 0.22 nM | 31 nM |
| O=C(O)CCNC(=O)CCC(=O)Nc1ccc2c(c1)CNCC2 | – | 1.21 nM | 30 nM |
| O=C(O)CC(NC(=O)CCC(=O)Nc1ccc2c(c1)CNCC2)c1ccccc1 (centres undefined) | – | 1.01 nM | 13 nM |
| O=C(O)CC(NC(=O)CCC(=O)Nc1ccc2c(c1)CNCC2)c1ccc(F)cc1 (centres undefined) | – | 1 nM | 8.9 nM |
| O=C(O)CC(NC(=O)CCC(=O)Nc1ccc2c(c1)CNCC2)c1cccc(F)c1 (centres undefined) | – | 1100 nM | 10000 nM |
| O=C(O)CC(NC(=O)CCC(=O)Nc1ccc2c(c1)CNCC2)c1ccccc1F (centres undefined) | – | 5 nM | 570 nM |
| O=C(O)CC(NC(=O)CCC(=O)Nc1ccc2c(c1)CNCC2)c1ccc(Cl)cc1 (centres undefined) | – | 65 nM | 2000 nM |
| COc1ccc(C(CC(=O)O)NC(=O)c2cccc(C(=O)Nc3ccc4c(c3)CNCC4)c2)cc1 (centres undefined) | – | 0.8 nM | 17 nM |
| O=C(O)CC(NC(=O)c1cccc(C(=O)Nc2ccc3c(c2)CNCC3)c1)c1ccccc1 (centres undefined) | – | 1 nM | 25 nM |
| COc1ccc(C(CC(=O)O)NC(=O)c2cccc(C(=O)Nc3ccc4c(c3)CNCC4)c2)cc1OC (centres undefined) | – | 0.7 nM | 11.6 nM |
